In patent publication EP0394553A2, “Use of fluorine containing pyridone carboxylic acid derivatives for preparing a medicament for the treatment of HIV infections” (DAIICHI PHARMACEUTICAL CO., LTD., priority 1989, dated 1990):

Columns and labels:
CEM cells = experiment: Cytotoxicity in uninfected CEM cells (trypan blue staining); settings: at concentrations not exceeding 10 mcg/ml
Procedure: (§1) Human T cell-derived, T4 antigen-positive CEM cells (provided by the Institut Pasteur, France) were used as host cells of HIV. Cell culture was carried out in a carbon dioxide-containing atmosphere in an incubator maintained at 37°C according to a conventional method [cf. […] The culture supernatant (5×10⁶ TCID₅₀/ml) obtained by subjecting CEM cells to HIV (LAV 1) infection and stored at -70°C was used as the HIV source.
The cell culture medium (10 ml) placed in a plastic culture flask (25 cm²) was inoculated with CEM cells to a cell density of 2.5×10⁵ cells/ml and incubation was performed for 3 days. Then, the culture was transferred to a 15-ml plastic centrifuge tube and centrifuged at 1,000 revolutions per minute for 5 minutes for medium removal. A fresh portion of the medium was added to the cells, the cell density being adjusted to 5.0×10⁵ cells/ml. The following mixture (1.0 ml) containing the cell suspension prepared in the above manner was incubated in a 24-well plastic culture plate for 4 days:
The cells in each well were then suspended uniformly in the medium by pipetting and a 0.5-ml portion of the suspension was separated.
A fresh 2-ml portion of the test substance-free medium was added to the remaining cell suspension (0.5 ml) and, after a further 3-day incubation, a cell suspension was produced in the same manner and a 0.5-ml portion thereof was removed.
The cell suspensions collected in the above manner were subjected to viable cell count and viable cell percentage determinations by trypan blue staining.

HIV (LAV 1) = experiment: microbe, parasite or virus in culture; settings: for Viable cell count / Viral antigen-positive cell percentage: 4-day addition
Procedure: as §1
The medium for cell culture (10 ml) placed in a plastic culture flask (25 cm²) was inoculated with CEM cells at a cell density of 2.5×10⁵ cells/ml. After 3 days of incubation, the culture was transferred to a 15-ml centrifuge tube and subjected to centrifugation at 1,000 revolutions per minute for 5 minutes for sedimentation of cells and removal of the culture medium.
The stock viral suspension was added to the host cells thus prepared to an MOI of 0.05 and the mixture was maintained at 37°C for 90 minutes with stirring at 30-minute intervals for viral adsorption. The medium was added to HIV-infected cells to a cell density of 5.0×10⁵ cells/ml to give an HIV-infected cell suspension.
A mixture (1.0 ml) of the three constituents mentioned below was added to each well of a 24-well plastic culture plate and the test substance final concentration was adjusted to 10 mcg/ml, 5 mcg/ml, 2.5 mcg/ml or 1 mcg/ml. The "no addition" wells (0 mcg/ml) served as controls.
After 4 days of incubation following viral infection, the cells in each well on the 24-well culture plate were suspended uniformly by pipetting and a 0.5-ml portion of the suspension was separated. A 2.0-ml portion of test substance-free fresh medium was added to the remaining 0.5-ml portion of the cell suspension, followed by incubation.
Seven days after viral infection, pipetting was performed to give a uniform cell suspension in each well and a 0.5-ml portion of the suspension was separated.
Incubation was continued and, 10 days after viral infection, a uniform cell suspension was produced in the same manner in each well and a 1.5-ml portion thereof was separated. A fresh 2.0-ml portion of the medium free of (or containing) the test substance was added to the well, followed by further incubation.
Fifteen days after viral infection, the cells in each well were suspended uniformly in the same manner in the medium and a 2.0-ml portion of the suspension was separated. A fresh 2.0-ml portion of the medium free of (or containing) the test substance was added to the remaining 0.5 ml of the cell suspension and incubation was continued.
Medium exchange was performed in the same manner 20 days and 25 days after viral infection.
The cell suspensions collected 4 days, 7 days, 10 days, 20 days and 30 days after viral infection were tested for viable cell count and viable cell percentage by trypan blue staining. At the same time, viral antigen-positive cell percentage determination was carried out by immunofluorescence using an anti-HIV antiserum isolated from a healthy carrier of HIV.
The numerical values given each is the mean for the respective two wells on the culture plate. The viable cell count is the total cell count minus the count of dead cells stained with trypan blue. The viable cell percentage is the percentage of viable cells among all the cells including dead cells. The viral antigen-positive cell percentage is the percentage of cells indicating antigen expression as found among all the cells including dead cells.

in vivo = settings: mouse, po
[1] = Human immunodeficiency virus 1, CCRF-CEM, 96 h, read-out: Viable cell percentage

| Structure (SMILES) | cytotoxicity (CEM cells) | Viable cell count (HIV (LAV 1); 1 mcg/ml, after 4 days) | Viral antigen-positive cell percentage (HIV (LAV 1); 1 mcg/ml, after 4 days) | Viable cell count (HIV (LAV 1); 1 mcg/ml, after 7 days) | Viral antigen-positive cell percentage (HIV (LAV 1); 1 mcg/ml, after 7 days) | Viable cell count (HIV (LAV 1); 1 mcg/ml, after 10 days) | Viable cell count (HIV (LAV 1); 1 mcg/ml, after 20 days) | Viable cell count (HIV (LAV 1); 1 mcg/ml, after 30 days) | Viable cell count (HIV (LAV 1); 2.5 mcg/ml, after 4 days) | Viral antigen-positive cell percentage (HIV (LAV 1); 2.5 mcg/ml, after 4 days) | Viable cell count (HIV (LAV 1); 2.5 mcg/ml, after 7 days) | Viral antigen-positive cell percentage (HIV (LAV 1); 2.5 mcg/ml, after 7 days) | Viable cell count (HIV (LAV 1); 2.5 mcg/ml, after 10 days) | Viable cell count (HIV (LAV 1); 2.5 mcg/ml, after 20 days) | Viable cell count (HIV (LAV 1); 2.5 mcg/ml, after 30 days) | Viable cell count (HIV (LAV 1); 5 mcg/ml, after 4 days) | Viral antigen-positive cell percentage (HIV (LAV 1); 5 mcg/ml, after 4 days) | Viable cell count (HIV (LAV 1); 5 mcg/ml, after 7 days) | Viral antigen-positive cell percentage (HIV (LAV 1); 5 mcg/ml, after 7 days) | Viable cell count (HIV (LAV 1); 5 mcg/ml, after 10 days) | other results |
| --- | --- | --- | --- | --- | --- | --- | --- | --- | --- | --- | --- | --- | --- | --- | --- | --- | --- | --- | --- | --- | --- |
| Cl.O.O=C(O)c1cn(C2CC2)c2cc(N3CCNCC3)c(F)cc2c1=O [CPFX, 1-cyclopropyl-6-fluoro-1,4-dihydro-4-oxo-7-(1-piperazinyl)-3-quinoline carboxylic acid hydrochloride hydrate] | no cytotoxicity | 220 × 10⁴ cells/ml | 83% | 86 × 10⁴ cells/ml | 62% | 52 × 10⁴ cells/ml | 8 × 10⁴ cells/ml | 33 × 10⁴ cells/ml | 200 × 10⁴ cells/ml | 87% | 98 × 10⁴ cells/ml | 60% | 320 × 10⁴ cells/ml | 220 × 10⁴ cells/ml | 360 × 10⁴ cells/ml | 220 × 10⁴ cells/ml | 92% | 76 × 10⁴ cells/ml | 67% | 310 × 10⁴ cells/ml | Viral antigen-positive cell percentage (HIV (LAV 1); 1 mcg/ml, after 10 days): 37%; Viral antigen-positive cell percentage (HIV (LAV 1); 1 mcg/ml, after 20 days): 33%; Viral antigen-positive cell percentage (HIV (LAV 1); 2.5 mcg/ml, after 10 days): 31%; Viral antigen-positive cell percentage (HIV (LAV 1); 2.5 mcg/ml, after 20 days): 3%; Viral antigen-positive cell percentage (HIV (LAV 1); 2.5 mcg/ml, after 30 days): ≦1%; Viral antigen-positive cell percentage (HIV (LAV 1); 5 mcg/ml, after 10 days): 29%; Viable cell count (HIV (LAV 1); 5 mcg/ml, after 20 days): 280 × 10⁴ cells/ml; Viral antigen-positive cell percentage (HIV (LAV 1); 5 mcg/ml, after 20 days): 4%; Viable cell count (HIV (LAV 1); 5 mcg/ml, after 30 days): 320 × 10⁴ cells/ml; Viral antigen-positive cell percentage (HIV (LAV 1); 5 mcg/ml, after 30 days): ≦1%; Viable cell count (HIV (LAV 1); 10 mcg/ml, after 4 days): 180 × 10⁴ cells/ml; Viral antigen-positive cell percentage (HIV (LAV 1); 10 mcg/ml, after 4 days): 88%; Viable cell count (HIV (LAV 1); 10 mcg/ml, after 7 days): 65 × 10⁴ cells/ml; Viral antigen-positive cell percentage (HIV (LAV 1); 10 mcg/ml, after 7 days): 57%; Viable cell count (HIV (LAV 1); 10 mcg/ml, after 10 days): 250 × 10⁴ cells/ml; Viral antigen-positive cell percentage (HIV (LAV 1); 10 mcg/ml, after 10 days): 27%; Viable cell count (HIV (LAV 1); 10 mcg/ml, after 20 days): 300 × 10⁴ cells/ml; Viral antigen-positive cell percentage (HIV (LAV 1); 10 mcg/ml, after 20 days): 10%; Viable cell count (HIV (LAV 1); 10 mcg/ml, after 30 days): 330 × 10⁴ cells/ml; Viral antigen-positive cell percentage (HIV (LAV 1); 10 mcg/ml, after 30 days): ≦1% |
| CCn1cc(C(=O)O)c(=O)c2cc(F)c(N3CCNCC3)nc21 [ENX, 1-ethyl-6-fluoro-1,4-dihydro-4-oxo-7-(1-piperazinyl)-1,8-naphthyridine-3-carboxylic acid sesqui-hydrate] | no cytotoxicity | 220 × 10⁴ cells/ml | 88% | 64 × 10⁴ cells/ml | 70% | 29 × 10⁴ cells/ml | 7 × 10⁴ cells/ml | 0 × 10⁴ cells/ml | 240 × 10⁴ cells/ml | 90% | 67 × 10⁴ cells/ml | 65% | 30 × 10⁴ cells/ml | 1 × 10⁴ cells/ml | 2 × 10⁴ cells/ml | 210 × 10⁴ cells/ml | 93% | 58 × 10⁴ cells/ml | 68% | 78 × 10⁴ cells/ml | LD50 (in vivo): ≥ 4000 mg/kg; Viable cell count (HIV (LAV 1); 5 mcg/ml, after 20 days): 11 × 10⁴ cells/ml; Viable cell count (HIV (LAV 1); 5 mcg/ml, after 30 days): 310 × 10⁴ cells/ml; Viral antigen-positive cell percentage (HIV (LAV 1); 5 mcg/ml, after 30 days): ≦1%; Viable cell count (HIV (LAV 1); 10 mcg/ml, after 4 days): 140 × 10⁴ cells/ml; Viral antigen-positive cell percentage (HIV (LAV 1); 10 mcg/ml, after 4 days): 88%; Viable cell count (HIV (LAV 1); 10 mcg/ml, after 7 days): 52 × 10⁴ cells/ml; Viral antigen-positive cell percentage (HIV (LAV 1); 10 mcg/ml, after 7 days): 68%; Viable cell count (HIV (LAV 1); 10 mcg/ml, after 10 days): 150 × 10⁴ cells/ml; Viral antigen-positive cell percentage (HIV (LAV 1); 10 mcg/ml, after 10 days): 30%; Viable cell count (HIV (LAV 1); 10 mcg/ml, after 20 days): 178 × 10⁴ cells/ml; Viral antigen-positive cell percentage (HIV (LAV 1); 10 mcg/ml, after 20 days): 5%; Viable cell count (HIV (LAV 1); 10 mcg/ml, after 30 days): 379 × 10⁴ cells/ml; Viral antigen-positive cell percentage (HIV (LAV 1); 10 mcg/ml, after 30 days): ≦1%; viability at 1 µg/mL (HIV (LAV 1); [1]): 95%; viability at 2.5 µg/mL (HIV (LAV 1); [1]): 95%; viability at 5 µg/mL (HIV (LAV 1); [1]): 98%; viability at 10 µg/mL (HIV (LAV 1); [1]): 97% |
